Test system: human peripheral blood mononuclear cells
Test: Inhibition of LPS-stimulated TNFα release from human peripheral blood mononuclear cells (TNFα screen)
Type: cell-based
Conditions: LPS-stimulated human PBMC, 18 hours incubation, TNFα in supernatant by ELISA
Procedure: Venous blood is collected from healthy volunteers and the mononuclear cells purified by centrifugation through Histopaque (Ficoll) cushions. TNFα production from these cells is stimulated by addition of lipopolysaccharide. After 18 hours incubation in the presence of LPS, the cell supernatant is removed and the concentration of TNFα in the supernatant determined by ELISA.

Compound | IC50 [nM]
CSc1cccc(Oc2ncc(F)cc2C(=O)N[C@H]2CC[C@@H](NC(=O)c3ccc(CO)cc3O)CC2)c1 [Example 2, Syn-5-Fluoro-N-[4-(2-hydroxy-4-hydroxymethyl-benzoylamino)-cyclohexyl]-2-(3-methylsulfanyl-phenoxy)-nicotinamide] | 0.6
CSc1cccc(Oc2ncc(F)cc2C(=O)N[C@H]2CC[C@@H](NC(=O)c3cn(CCO)cn3)CC2)c1 [Example 3, Syn-5-Fluoro-N-(4-{[1-(2-hydroxy-ethyl)-1H-imidazole-4-carbonyl]-amino}-cyclohexyl)-2-(3-methylsulfanyl-phenoxy)-nicotinamide] | 1.6
CSc1cc(Oc2ncc(F)cc2C(=O)N[C@H]2CC[C@@H](NC(=O)c3ccccc3OCCO)CC2)ccc1F [Example 9, Syn-5-Fluoro-2-(4-fluoro-3-methylsulfanyl-phenoxy)-N-{4-[2-(2-hydroxy-ethoxy)-benzoylamino]-cyclohexyl}-nicotinamide] | 0.36
CSc1cccc(Oc2ncc(F)cc2C(=O)N[C@H]2CC[C@@H](NC(=O)c3cc(C(C)C)n(CCO)n3)CC2)c1 [Example 10, Syn-5-Fluoro-N-(4-{[1-(2-hydroxy-ethyl)-5-isopropyl-1H-pyrazole-3-carbonyl]-amino}-cyclohexyl)-2-(3-methylsulfanyl-phenoxy)-nicotinamide] | 2.5
Syn-5-Chloro-N-{4-[2-(2-hydroxy-ethoxy)-benzoylamino]-cyclohexyl}-2-(3-methylsulfanyl-phenoxy)-nicotinamide [Example 18] | 0.15
Syn-5-Fluoro-N-(4-{[1-(2-hydroxy-ethyl)-1H-pyrazole-3-carbonyl]-amino}-cyclohexyl)-2-(3-methylsulfanyl-phenoxy)-nicotinamide [Example 5] | 0.24
Syn-5-Fluoro-N-(4-{[1-(2-hydroxy-ethyl)-1H-pyrazole-4-carbonyl]-amino}-cyclohexyl)-2-(3-methylsulfanyl-phenoxy)-nicotinamide [Example 7] | 4.6
Syn-5-Fluoro-N-(4-{[1-(2-hydroxy-ethyl)-5-methyl-1H-pyrazole-3-carbonyl]-amino}-cyclohexyl)-2-(3-methylsulfanyl-phenoxy)-nicotinamide [Example 8] | 0.2
Syn-5-Fluoro-N-{4-[2-(2-hydroxy-ethoxy)-3-methyl-benzoylamino]-cyclohexyl}-2-(3-methylsulfanyl-phenoxy)-nicotinamide [Example 13] | 0.07
Syn-5-Fluoro-N-{4-[2-(2-hydroxy-ethoxy)-4-methyl-benzoylamino]-cyclohexyl}-2-(3-methylsulfanyl-phenoxy)-nicotinamide [Example 12] | 0.3
Syn-5-Fluoro-N-{4-[2-(2-hydroxy-ethoxy)-5-methyl-benzoylamino]-cyclohexyl}-2-(3-methylsulfanyl-phenoxy)-nicotinamide [Example 11] | 0.8
Syn-N-(4-{[5-Ethyl-1-(2-hydroxy-ethyl)-1H-pyrazole-3-carbonyl]-amino}-cyclohexyl)-5-fluoro-2-(3-methylsulfanyl-phenoxy)-nicotinamide [Example 17] | 0.05
Syn-N-{4-[4-Chloro-2-(2-hydroxy-ethoxy)-benzoylamino]-cyclohexyl}-5-fluoro-2-(3-methylsulfanyl-phenoxy)-nicotinamide [Example 15] | 1.6
Syn-N-{4-[5-Chloro-2-(2-hydroxy-ethoxy)-benzoylamino]-cyclohexyl}-5-fluoro-2-(3-methylsulfanyl-phenoxy)-nicotinamide [Example 14] | 0.6
